In one series the test system is Mus musculus. The experiment in a line: Antinociceptive activity in Mus musculus Swiss albino (mouse) assessed as prolongation of reaction latency to mechanical stimuli at 100 mg/kg, ip administered 30 min before experimental session by tail-clip test. The class given is functional. The conditions noted are these: route intraperitoneal.
Take `Nn1c(CCc2ccc(O)cc2)nnc1SCC(=O)N1N=C(c2cccs2)CC1c1ccc2c(c1)OCO2` (stereo unspecified): the MPE was 36.2%.

In the case of `Nn1c(CCc2ccc(O)cc2)nnc1SCC(=O)N1N=C(c2cccs2)CC1c1ccccc1` (stereo unspecified), the MPE turned out to be 80.2%.

As for `Nn1c(CCc2ccc(O)cc2)nnc1SCC(=O)N1N=C(c2cccs2)CC1c1ccc(F)cc1` (stereo unspecified), the MPE is reported as 85%.

Regarding `Nn1c(CCc2ccc(O)cc2)nnc1SCC(=O)N1N=C(c2cccs2)CC1c1ccc(Cl)cc1` (stereo unspecified), the MPE came out at 75.3%.

Take `Cc1ccc(C2CC(c3cccs3)=NN2C(=O)CSc2nnc(CCc3ccc(O)cc3)n2N)cc1` (stereo unspecified): the MPE is on record as 53.5%.

Turning to `CN(C)c1ccc(C2CC(c3cccs3)=NN2C(=O)CSc2nnc(CCc3ccc(O)cc3)n2N)cc1` (stereo unspecified), the MPE amounted to 36.5%.

The test system of a further series is Mus musculus. The experiment in a line: Antinociceptive activity in Mus musculus Swiss albino (mouse) assessed as increase in reaction (paw licking and jumping) latency to thermal stimulus at 100 mg/kg, ip administered 30 min before experimental session by hot plate test. It is filed as functional. To be noted: route intraperitoneal.
Regarding `Nn1c(CCc2ccc(O)cc2)nnc1SCC(=O)N1N=C(c2cccs2)CC1c1ccc2c(c1)OCO2` (stereo unspecified), the Activity worked out at 45.1%.

Turning to `Nn1c(CCc2ccc(O)cc2)nnc1SCC(=O)N1N=C(c2cccs2)CC1c1ccccc1` (stereo unspecified), the Activity came to 79.4%.

`Nn1c(CCc2ccc(O)cc2)nnc1SCC(=O)N1N=C(c2cccs2)CC1c1ccc(F)cc1` (stereo unspecified): the Activity is 89%.

In the case of `Nn1c(CCc2ccc(O)cc2)nnc1SCC(=O)N1N=C(c2cccs2)CC1c1ccc(Cl)cc1` (stereo unspecified), the Activity is given as 81.6%.

As for `Cc1ccc(C2CC(c3cccs3)=NN2C(=O)CSc2nnc(CCc3ccc(O)cc3)n2N)cc1` (stereo unspecified), the Activity was found to be 50.3%.

With `CN(C)c1ccc(C2CC(c3cccs3)=NN2C(=O)CSc2nnc(CCc3ccc(O)cc3)n2N)cc1` (stereo unspecified), the Activity is on record as 38.5%.

A further series concerns Mus musculus. The experiment in a line: Toxicity in Mus musculus Swiss albino (mouse) assessed as vertical locomotor activity at 100 mg/kg, ip. The class given is organism-based. Further details: dose 100 mg/kg, route intraperitoneal. To be noted: in vivo.
Regarding `Nn1c(CCc2ccc(O)cc2)nnc1SCC(=O)N1N=C(c2cccs2)CC1c1ccc2c(c1)OCO2` (stereo unspecified), the Activity entry was “Non-toxic”.

With `Nn1c(CCc2ccc(O)cc2)nnc1SCC(=O)N1N=C(c2cccs2)CC1c1ccccc1` (stereo unspecified), the Activity result is “Non-toxic”.

As to `Nn1c(CCc2ccc(O)cc2)nnc1SCC(=O)N1N=C(c2cccs2)CC1c1ccc(F)cc1` (stereo unspecified), the Activity entry is on record as “Non-toxic”.

As for `Nn1c(CCc2ccc(O)cc2)nnc1SCC(=O)N1N=C(c2cccs2)CC1c1ccc(Cl)cc1` (stereo unspecified), the Activity result is given as “Non-toxic”.

On to `Cc1ccc(C2CC(c3cccs3)=NN2C(=O)CSc2nnc(CCc3ccc(O)cc3)n2N)cc1` (stereo unspecified), for which the Activity result was “Non-toxic”.

As for `CN(C)c1ccc(C2CC(c3cccs3)=NN2C(=O)CSc2nnc(CCc3ccc(O)cc3)n2N)cc1` (stereo unspecified), the Activity entry is given as “Non-toxic”.

For the next series, the system named is Mus musculus. The experiment in a line: Antinociceptive activity in Mus musculus Swiss albino (mouse) assessed as prolongation of reaction latency to mechanical stimuli at 10 mg/kg, ip administered 30 min before experimental session by tail-clip test. It is filed as functional. To be noted: route intraperitoneal.
Take `CN1CC[C@]23c4c5ccc(O)c4O[C@H]2[C@@H](O)C=C[C@H]3[C@H]1C5` [MORPHINE]: the MPE amounted to 88.1%.

A further series concerns Mus musculus. The experiment in a line: Antinociceptive activity against formalin-induced pain in Mus musculus Swiss albino (mouse) assessed as inhibition of licking during first phase (0 to 5 min) at 100 mg/kg, ip administered 30 min before experimental session. The class given is functional. The conditions noted are these: route intraperitoneal.
As for `Nn1c(CCc2ccc(O)cc2)nnc1SCC(=O)N1N=C(c2cccs2)CC1c1ccc2c(c1)OCO2` (stereo unspecified), the inhibition in vivo at 100 mg/kg stood at 32%.

With `Nn1c(CCc2ccc(O)cc2)nnc1SCC(=O)N1N=C(c2cccs2)CC1c1ccccc1` (stereo unspecified), the inhibition in vivo at 100 mg/kg was found to be 66.6%.

`Nn1c(CCc2ccc(O)cc2)nnc1SCC(=O)N1N=C(c2cccs2)CC1c1ccc(F)cc1` (stereo unspecified): the inhibition in vivo at 100 mg/kg came to 73.7%.

With `Nn1c(CCc2ccc(O)cc2)nnc1SCC(=O)N1N=C(c2cccs2)CC1c1ccc(Cl)cc1` (stereo unspecified), the inhibition in vivo at 100 mg/kg worked out at 68.7%.

In the case of `Cc1ccc(C2CC(c3cccs3)=NN2C(=O)CSc2nnc(CCc3ccc(O)cc3)n2N)cc1` (stereo unspecified), the inhibition in vivo at 100 mg/kg is 35.4%.

On to `CN(C)c1ccc(C2CC(c3cccs3)=NN2C(=O)CSc2nnc(CCc3ccc(O)cc3)n2N)cc1` (stereo unspecified), for which the inhibition in vivo at 100 mg/kg was 31.3%.

The next series is filed under the species Mus musculus. As to the kind of experiment: animal or person. To be noted: Swiss albino, ip, read-out: INH.
Description: Antinociceptive activity against formalin-induced pain in Mus musculus Swiss albino (mouse) assessed as inhibition of licking during second phase (15 to 30 min) at 10 mg/kg, ip administered 30 min before experimental session
As to `CN1CC[C@]23c4c5ccc(O)c4O[C@H]2[C@@H](O)C=C[C@H]3[C@H]1C5` [MORPHINE], the inhibition in vivo at 10 mg/kg amounted to 100%.

A further series relates to Mus musculus. As to the kind of experiment: Antinociceptive activity in Mus musculus Swiss albino (mouse) assessed as increase in reaction (paw licking and jumping) latency to thermal stimulus at 10 mg/kg, ip administered 30 min before experimental session by hot plate test. The class given is functional. To be noted: route intraperitoneal. For orientation: Hot-plate and tail-flick tests time the reaction to a heat stimulus.
`CN1CC[C@]23c4c5ccc(O)c4O[C@H]2[C@@H](O)C=C[C@H]3[C@H]1C5` [MORPHINE]: the Activity is on record as 92.5%.

The species entered for a further series is Mus musculus. The experiment in a line: animal or person. The conditions noted are these: Swiss albino, ip, read-out: INH. The source holds these as a separate data set.
Description: Antinociceptive activity against formalin-induced pain in Mus musculus Swiss albino (mouse) assessed as inhibition of licking during first phase (0 to 5 min) at 10 mg/kg, ip administered 30 min before experimental session
Consider `CN1CC[C@]23c4c5ccc(O)c4O[C@H]2[C@@H](O)C=C[C@H]3[C@H]1C5` [MORPHINE], for which the inhibition in vivo at 10 mg/kg was determined as 100%.

In a further series the test system is Mus musculus. The experiment in a line: Toxicity in Mus musculus Swiss albino (mouse) assessed as mortality at 100 mg/kg, ip. The class given is organism-based. Further details: dose 100 mg/kg, route intraperitoneal. To be noted: in vivo.
On to `Nn1c(CCc2ccc(O)cc2)nnc1SCC(=O)N1N=C(c2cccs2)CC1c1ccc2c(c1)OCO2` (stereo unspecified), for which the Activity result is given as “Non-toxic”.

Turning to `Nn1c(CCc2ccc(O)cc2)nnc1SCC(=O)N1N=C(c2cccs2)CC1c1ccccc1` (stereo unspecified), the Activity entry is “Non-toxic”.

With `Nn1c(CCc2ccc(O)cc2)nnc1SCC(=O)N1N=C(c2cccs2)CC1c1ccc(F)cc1` (stereo unspecified), the Activity entry was “Non-toxic”.

Turning to `Nn1c(CCc2ccc(O)cc2)nnc1SCC(=O)N1N=C(c2cccs2)CC1c1ccc(Cl)cc1` (stereo unspecified), the Activity result was “Non-toxic”.

As to `Cc1ccc(C2CC(c3cccs3)=NN2C(=O)CSc2nnc(CCc3ccc(O)cc3)n2N)cc1` (stereo unspecified), the Activity result is reported as “Non-toxic”.

As for `CN(C)c1ccc(C2CC(c3cccs3)=NN2C(=O)CSc2nnc(CCc3ccc(O)cc3)n2N)cc1` (stereo unspecified), the Activity entry is “Non-toxic”.

The next series deals with Mus musculus. The experiment in a line: Antinociceptive activity against formalin-induced pain in Mus musculus Swiss albino (mouse) assessed as inhibition of licking during second phase (15 to 30 min) at 100 mg/kg, ip administered 30 min before experimental session. It is filed as functional. To be noted: route intraperitoneal.
On to `Nn1c(CCc2ccc(O)cc2)nnc1SCC(=O)N1N=C(c2cccs2)CC1c1ccc2c(c1)OCO2` (stereo unspecified), for which the inhibition in vivo at 100 mg/kg was 37.3%.

Turning to `Nn1c(CCc2ccc(O)cc2)nnc1SCC(=O)N1N=C(c2cccs2)CC1c1ccccc1` (stereo unspecified), the inhibition in vivo at 100 mg/kg was 79.2%.

`Nn1c(CCc2ccc(O)cc2)nnc1SCC(=O)N1N=C(c2cccs2)CC1c1ccc(F)cc1` (stereo unspecified): the inhibition in vivo at 100 mg/kg was 78.3%.

For the compound `Nn1c(CCc2ccc(O)cc2)nnc1SCC(=O)N1N=C(c2cccs2)CC1c1ccc(Cl)cc1` (stereo unspecified), the inhibition in vivo at 100 mg/kg was determined as 72.1%.

For `Cc1ccc(C2CC(c3cccs3)=NN2C(=O)CSc2nnc(CCc3ccc(O)cc3)n2N)cc1` (stereo unspecified), the inhibition in vivo at 100 mg/kg came out at 42.5%.

With `CN(C)c1ccc(C2CC(c3cccs3)=NN2C(=O)CSc2nnc(CCc3ccc(O)cc3)n2N)cc1` (stereo unspecified), the inhibition in vivo at 100 mg/kg was 38.9%.

In another series the test system is Mus musculus. As to the kind of experiment: Toxicity in Mus musculus Swiss albino (mouse) assessed as horizontal locomotor activity at 100 mg/kg, ip. It is filed as organism-based. Further details: dose 100 mg/kg, route intraperitoneal. The conditions noted are these: in vivo.
As for `Nn1c(CCc2ccc(O)cc2)nnc1SCC(=O)N1N=C(c2cccs2)CC1c1ccc2c(c1)OCO2` (stereo unspecified), the Activity entry was “Non-toxic”.

With `Nn1c(CCc2ccc(O)cc2)nnc1SCC(=O)N1N=C(c2cccs2)CC1c1ccccc1` (stereo unspecified), the Activity result is given as “Non-toxic”.

As for `Nn1c(CCc2ccc(O)cc2)nnc1SCC(=O)N1N=C(c2cccs2)CC1c1ccc(F)cc1` (stereo unspecified), the Activity entry was “Non-toxic”.

Turning to `Nn1c(CCc2ccc(O)cc2)nnc1SCC(=O)N1N=C(c2cccs2)CC1c1ccc(Cl)cc1` (stereo unspecified), the Activity result is listed as “Non-toxic”.

On to `Cc1ccc(C2CC(c3cccs3)=NN2C(=O)CSc2nnc(CCc3ccc(O)cc3)n2N)cc1` (stereo unspecified), for which the Activity entry is “Non-toxic”.

Turning to `CN(C)c1ccc(C2CC(c3cccs3)=NN2C(=O)CSc2nnc(CCc3ccc(O)cc3)n2N)cc1` (stereo unspecified), the Activity result is listed as “Non-toxic”.

These data come from ChEMBL document CHEMBL3046596, “Antinociceptive activities of some triazole and pyrazoline moieties-bearing compounds” (Med Chem Res, 2012).
